From a melting point compilation (Tetko et al.; mined from patent text by program, amines drawn as free bases though some values may be those of a salt)

Row | SMILES | melting point [°C]
1 | O=C(O)Cc1cn(-c2ccccc2)nc1OCc1ccccc1 | 105 to 106
2 | C/C(=N\OC(=O)C1CCN(C(=O)OC(C)(C)C)CC1)[C@H]1CC[C@H]2[C@@H]3CCC4=CC(=O)CC[C@]4(C)[C@H]3CC[C@]12C | 167 to 169
3 | COCCc1nc2cnc3cc(Br)cnc3c2n1CC(C)(C)O | 125
4 | CCOC(=O)[C@@](CC)(CCCNCCc1c[nH]c2ccc(F)cc12)C(OCC)OCC | 100
5 | CCOC(=O)c1c(N2CCN(C(=O)c3cccs3)CC2)c2sccc2n(Cc2cccc(F)c2)c1=O | 95 to 113
6 | Cc1cc(Oc2nn(C)c(C(F)(F)F)c2Cl)ccc1[N+](=O)[O-] | 72 to 73.5
7 | CC1CC(c2ccc(CCCCN)cc2)=NNC1=O (stereo not drawn) | 118 to 120
8 | CCOC(=O)c1nc2oc(C)c(C)c2c(=O)[nH]1 | 180 to 182
9 | CCN1C(=O)C(C)(C)C(=O)N(C)c2cc(CN(CCn3ccc4oc(C)cc4c3=O)Cc3cccnc3C=O)ccc21 | 147 to 149
10 | CN(C)c1nccc(-c2cccnc2)n1 | 230 to 241
11 | Nc1nc2ccccc2c2c1ncn2CCCCCC(=O)c1ccccc1 | 163 to 165
12 | CS(=O)(=O)c1cccc(Nc2cc(-c3ccc(C(F)(F)F)cc3)ncn2)c1 | 204 to 205
13 | CCCc1nn(-c2ccc(C(F)(F)F)cn2)cc1CCCOc1ccc(CC(=O)O)c(OC)c1 | 135 to 136
14 | CC(C)Cn1c(CO)c(-c2ccc(F)cc2)c2cc(OCc3ccccc3)ccc2c1=O | 143 to 144
15 | Cc1noc(-c2cccc(CN3CCN(c4ccc(NC(=O)OC(C)(C)C)cc4)CC3)c2)n1 | 159 to 161
16 | COc1nc(C(F)(F)F)cc(=O)n1-c1cc(O)c(Br)cc1F | 132 to 136
17 | COc1cccc(C(=O)NN=C2CCc3ccccc3C2)c1C | 138
18 | CC(C)(C)c1cc(Br)c(O)c(Br)c1 | 65 to 69
19 | Cc1cc(C)c(C(C#N)C=O)c(C)c1 (stereo not drawn) | 120 to 122
20 | CCCCNCc1nc(-c2ccc3c(c2)Nc2ccccc2S3)cs1 | 139 to 141
21 | CC(=O)N(CCc1nc(-c2ccccc2)oc1C)Cc1ccc(C[C@@H](C(=O)O)n2cccc2)cc1 | 82 to 87
22 | O=c1c2c(N3CCNCC3)cc(Cl)cc2n(Cc2ccccc2)c(=O)n1Cc1ccccc1 | 115 to 123
23 | COc1ccc(C(=O)N2CCc3cc(OCc4ccccc4)ccc3C2)cc1OC | 126 to 127
24 | COc1ccc(Cl)cc1C1(F)C(=O)Nc2ccc(F)cc21 (stereo not drawn) | 205 to 207
25 | COc1ccc(-n2c(-c3sc(Nc4ccccc4)nc3C)nc3ccccc3c2=O)cc1 | 265 to 266

Row | SMILES | melting point [°C]
26 | N#Cc1cnc(N)nc1-c1ccccc1 | 147
27 | CCCCCCCCCCCCCCCCS(=O)(=O)N[C@H]1CCCNC(=O)C1 | 100 to 101
28 | NC(=NO)c1cccc2ccccc12 | 128 to 130
29 | Cc1onc2c(=O)[nH]nc(-c3ccc(O)cc3)c12 | 268 to 276
30 | CC(C)(C)OC(=O)N1CCCC(CO)(c2ccccc2)C1 (stereo not drawn) | 101 to 104
31 | COc1ccc(Cl)cc1NC(=O)[C@H]1[C@H](c2ccc(Br)cc2)C1(C)C (relative stereo) | 170 to 172
32 | Cc1c(OCC(F)(F)F)ccnc1CSc1nc2ccccc2[nH]1 | 142 to 144
33 | CCOC(=O)c1c(CN2CCC(C(=O)OCC)CC2)nc2sc3c(c2c1-c1ccc(OC)c(OC)c1)CCN(C(=O)c1ccc(Cl)cc1)C3 | 99 to 101
34 | COc1ccc(N(C)CC(=O)O)c(C(=O)O)c1 | 196
35 | O=c1[nH]c(C(F)(F)F)nc2ccc(I)cc12 | > 255
36 | CC(=O)OCC(=O)C12OCOC1CC1C3CCC4=CC(=O)CCC4(C)C3(Cl)C(O)CC12C (stereo not drawn) | 231
37 | COc1ncc(CN2C(=O)C3(COc4cc5c(cc43)OCO5)c3ccccc32)s1 (stereo not drawn) | 164 to 166
38 | Oc1ccc(C2=COc3ccccc3O2)cc1 | 137 to 140
39 | N#Cc1cccc(NC(=O)NC2N=C(c3ccccc3F)c3ccccc3N(CC(=O)N3CC4CCC(CC4)C3)C2=O)c1 (racemic) | 188 to 195
40 | CC(C)(C)OC(=O)N[C@H](CO)C(=O)OC(c1ccccc1)c1ccccc1 | 116 to 117
41 | COc1nc(OC)c(C(C)C)c(C(=O)c2cc(C)cc(Br)c2)n1 | 122 to 123
42 | CCOC(=O)C1(C)C=C(Cl)C2=NCN(C)C2=N1 (stereo not drawn) | 56 to 58
43 | CCOC(=O)c1ccc(-c2cccc3cncn23)cc1 | 118 to 119
44 | Nc1cccc2cc(-c3ccccn3)[nH]c12 | 165 to 166
45 | COC=C(C(=O)OC)c1ccccc1Oc1ncnc(F)c1Cl | 102
46 | O=[N+]([O-])c1cc(S(=O)c2ccc(-c3ccccc3)cc2)ccc1Cl (stereo not drawn) | 98 to 99
47 | CC1CCc2nc(-c3ccccc3)[nH]c(=O)c2C1 (stereo not drawn) | 237
48 | COc1ccc(C(=N)N(N)c2c(Cl)cncc2Cl)cc1OC1CCCC1 | 130 to 131
49 | O=C(CCCCl)Nc1cccc(-c2ccnc3c(C(=O)c4cccs4)cnn23)c1 | 97 to 100
50 | N#CC1c2ccccc2C=Cc2ccccc21 | 102 to 104

Row | SMILES | melting point [°C]
51 | CC(CF)c1ccc(NC(=O)N(C)C)cc1 (stereo not drawn) | 145 to 146
52 | CC(C)(C)c1ccc(-c2c(Cl)c(CCl)nc3sc4c(c23)CCN(Cc2ccccc2)C4)cc1 | 208 to 209
53 | CC(C)(C)OC(=O)N1CCN(C(c2ccccc2)c2ccc(Cl)cc2)CC1 (single isomer, unassigned; (-)) | 156
54 | O=C1CC2(CCCC2)CC(=O)N1c1cccnc1 | 153 to 154
55 | Cc1cnc2c(c1)C(=O)c1nccc(Br)c1C2=O | > 200
56 | CC(C)(C)OC(=O)C(ON1C(=O)c2ccccc2C1=O)c1ccccc1 (stereo not drawn) | 121 to 122
57 | O=C(CS(=O)c1ccccc1)Nc1c([N+](=O)[O-])cnn1-c1c(Cl)cc(C(F)(F)F)cc1Cl (stereo not drawn) | 108 to 110
58 | CCOC(=O)c1sc(Cl)nc1-c1ccccc1 | 56 to 57
59 | Cc1nc(-n2cc(C(=O)NCc3ccccc3)nn2)sc1C(=O)NCc1ccccc1 | 178 to 180
60 | Cc1nnc2ncc(-c3ccccc3F)nn12 | 200 to 204
61 | CN1C(=O)CCCc2ccc(Nc3ncc(Cl)c(N[C@@H]4CCCC[C@H]4NS(C)(=O)=O)n3)cc21 | 127 to 130
62 | CC(C)C(=O)N1CC(OCc2ccccc2)C(OCc2ccccc2)C(OCc2ccccc2)C1COCc1ccccc1 (stereo not drawn) | 185 to 189
63 | CSc1ccc(N2CCN(c3c(C)c(C)c4c(c3C)CC(C)(C)O4)CC2)cc1 | 211 to 213
64 | O=C(O)CCCCCCCCCCOc1ccccc1 | 76 to 78
65 | CCC1(CCCCN2CCN(c3ccc(Cl)cc3)CC2)C(=O)Nc2ccc(F)cc21 (stereo not drawn) | 148 to 150
66 | Nc1ncccc1C(=O)NCC1CCN(C[C@H]2COc3ccc(Cl)cc3O2)CC1 | 150 to 152
67 | CC(=O)N1CCOc2c(C(=O)O)cc(Cl)cc21 | 76 to 77
68 | CCOC(=O)N1CCc2nnc(NN)cc2C1 | 145 to 147
69 | Clc1ccc(N2CCN(Cc3ccc4[nH]ccc4c3)CC2)cc1 | 175 to 176
70 | CC1(C)CC(=O)C(C(=O)Nc2ccc(Cl)c(C(F)(F)F)c2)C(=O)O1 (stereo not drawn) | 156
71 | COc1cc2c(cc1Nc1ncc(Cl)c(Nc3cccc(N4CCOCC4)c3)n1)CCN(CC(=O)N(C)C)CC2 | 91 to 111
72 | COc1ccc(C#CCO)c2c1c(CCN(C)C)cn2C | 101 to 104
73 | Nc1cc(-c2ccccc2)c(S(N)(=O)=O)cc1S(N)(=O)=O | 197 to 198
74 | CCOC(=O)c1ccc(NC(=O)C(COS(C)(=O)=O)NS(=O)(=O)c2ccc(Cl)cc2)cc1 (racemic) | 153 to 158
75 | CS(=O)(=O)c1ccc(-c2cnn(-c3cccc(-c4ccc(F)cc4)c3)c(=O)c2-c2ccc(F)cc2)cc1 | 222 to 225

Row | SMILES | melting point [°C]
76 | CC(C)C(=O)N(C)C1CN(C(=O)Nc2ccc(C(F)(F)F)cc2)N=C1c1ccc(Cl)cc1 (stereo not drawn) | 180 to 182
77 | CCn1c(C(C)NS(=O)(=O)c2ccc(Cl)c(Cl)c2)cnc1Oc1ccc2cc[nH]c2c1 (stereo not drawn) | 150 to 154
78 | CCCCCCCCc1ccc(-c2ccc(O)c(F)c2)nc1 | 73.5 to 74.6
79 | O=C(CCCCCNC(=O)Nc1cn2c3c(cccc13)CCC2)NO | 161 to 163
80 | CCN1CCC(c2c[nH]c3ccc(NC(=O)c4ccco4)cc23)CC1 | 178 to 179
81 | CCCOc1ncc(C(C)=O)cc1-c1nc2c(CC)n(C3CN(C(C)=O)C3)nc2c(=O)[nH]1 | 229 to 230
82 | CCN(CC)c1ccc(C=O)c(OCCN2CCOCC2)c1 | 107 to 109
83 | O=c1[nH]c2cc([N+](=O)[O-])c(-n3ccc(C=NO)c3)cc2n(C2CCCCC2)c1=O | 234
84 | N#Cc1cnc(Nc2ccc(CCO)cc2)nc1-c1ccccc1 | 142 to 143
85 | Cc1ccc(-c2cncnc2C#N)cc1 | 107 to 109
86 | O=C1CCC(N2Cc3c(OCC4CCCOC4)cccc3C2=O)C(=O)N1 (stereo not drawn) | 118 to 120
87 | CCC1(CC)C(=O)N(c2ccccc2)CC(C)(C)N1OC(C)c1ccccc1 (stereo not drawn) | 78 to 81
88 | Nc1nc2cccnc2c2c1nc(CCCO)n2CC1(O)CCOCC1 | 237 to 238
89 | C/C=C/[C@H](O)C[C@]1(C)CCc2c(C)c(OCc3ccccc3)c(C)c(C)c2O1 | 68 to 70
90 | OC(c1cc(Cl)cc(Cl)c1)c1cc(Cl)cc(Cl)c1 | 126
91 | CCN(C=O)Cc1ccc(NCCN(CC)CC)c2c(=O)c3ccccc3sc12 | 75 to 77
92 | COc1ccccc1N1CCN(C(=O)[C@@H](Cc2ccccc2)NC(=O)OC(C)(C)C)CC1 | 95 to 97
93 | Cc1ccc(S(=O)(=O)OCCCCCCCn2c3c(c4ccccc4c2=O)C(=O)c2ccccc2-3)cc1 | 123 to 126
94 | CSC(=NCc1cccnc1)NC#N | 152 to 154
95 | CCCCCCCNC(=O)Nc1ccccc1C(=O)N1CCN(c2ccccc2OC)CC1 | 209 to 212
96 | CCCCc1nc(Cl)c(CO)n1Cc1ccc(Oc2ccccc2C(=O)O)cc1 | 178 to 180
97 | COc1ccc(C(=O)Nc2ccccc2)cc1NC(=S)Nc1cccnc1 | 178 to 179
98 | O=C1OCc2cc(CO)ccc21 | 126
